PubChem BioAssay (NCI)
Where “and” joins values, the source holds several entries; their conditions need not be identical. Equal values may be shown once.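 Grown in 96-well plates, cells were treated for 48 hours with each compound at five concentrations. Insufficient inhibition: endpoint recorded as highest concentration tested. Here, GI50 denotes the concentration required for 50% inhibition of growth. TGI is the concentration that stops growth completely.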

Experiments:
Experiment in all cases: NCI-60 cell line screen, 48 h
SK-MEL-2 melanoma = tested on: SK-MEL-2 melanoma
OVCAR-3 ovarian = tested on: OVCAR-3 ovarian
UACC-62 melanoma = tested on: UACC-62 melanoma
OVCAR-8 ovarian = tested on: OVCAR-8 ovarian
U251 CNS = tested on: U251 CNS
SW-620 colon = tested on: SW-620 colon
HCT-116 colon = tested on: HCT-116 colon
BT-549 breast = tested on: BT-549 breast
COLO 205 colon = tested on: COLO 205 colon
SNB-19 CNS = tested on: SNB-19 CNS

Compound	GI50 (SK-MEL-2 melanoma)	TGI (SK-MEL-2 melanoma)	GI50 (OVCAR-3 ovarian)	TGI (OVCAR-3 ovarian)	GI50 (UACC-62 melanoma)	TGI (UACC-62 melanoma)	GI50 (OVCAR-8 ovarian)	TGI (OVCAR-8 ovarian)	GI50 (U251 CNS)	TGI (U251 CNS)	GI50 (SW-620 colon)	TGI (SW-620 colon) [µM]	GI50 (HCT-116 colon)	TGI (HCT-116 colon)	GI50 (BT-549 breast)	TGI (BT-549 breast)	GI50 (COLO 205 colon)	TGI (COLO 205 colon)	GI50 (SNB-19 CNS)	TGI (SNB-19 CNS)
O=C1CCc2c(sc3[nH]c(=S)n(Cc4ccc(Cl)cc4)c(=O)c23)C1	2.07 µM	6.12 µM	0.385 µM	> 55.6 µM	0.329 µM	1.76 µM	0.468 µM	> 100 µM	0.377 µM	18 µM	0.393 µM	> 100	0.366 µM	> 100 µM	0.363 µM	3.03 µM	1.92 µM	3.71 µM	0.385 µM	> 100 µM
Cc1cccc(NC(=O)c2cccc([N+](=O)[O-])c2O)c1C	–	46.9 µM	–	> 100 µM	–	> 100 µM	–	> 100 µM	–	> 100 µM	–	> 100	–	> 100 µM	–	> 100 µM	–	32.9 µM	–	> 100 µM
C[N+]1=C(/C=C\C=C\c2ccccc2)C(C)(C)c2ccccc21	1.69 µM	4.31 µM	1.08 µM	2.81 µM	1.65 µM	4.98 µM	2.11 µM	10.5 µM	1.59 µM	4.18 µM	1.38 µM	4.08	3.3 µM	13.2 µM	2.34 µM	9.29 µM	0.686 µM	2.26 µM	2.79 µM	10.8 µM
CN(Cc1cc(C(C)(C)C)cc(Br)c1O)Cc1cc(C(C)(C)C)cc(Br)c1O	–	5.86 µM	–	6.73 µM	–	12.8 µM	–	15.3 µM	–	8.15 µM	–	16.9	–	9.46 µM	–	14.4 µM	–	28.4 µM	–	19.3 µM
Cc1cc(N2CCOCC2)cc2[nH]c(-c3c(NC[C@@H](O)c4cccc(Cl)c4)cc[nH]c3=O)nc12	1.98 µM	5.98 µM	5.58 µM	27.7 µM	2.36 µM	12.6 µM	3.23 µM	14.7 µM	1.65 µM	4.38 µM	1.05 µM	11.2	1.64 µM	6.67 µM	1.83 µM	7.18 µM	0.118 µM	0.642 µM	3.29 µM	22.8 µM
CCNC(=O)O[C@H]1CN[C@H](C#Cc2cc3ncnc(Nc4ccc(OCc5cccc(F)c5)c(Cl)c4)c3s2)C1	6.1 µM	24.9 µM	3.77 µM	16.7 µM	17 µM	> 25 µM	6.25 µM	> 25 µM	9.24 µM	> 25 µM	12 µM	> 25	7.43 µM	> 25 µM	3.89 µM	9.38 µM	6.9 µM	> 17.7 µM	16.2 µM	> 25 µM
O=C(OC[C@H]1O[C@H](OC(=O)c2cc(O)c(O)c(OC(=O)c3cc(O)c(O)c(O)c3)c2)[C@H](OC(=O)c2cc(O)c(O)c(OC(=O)c3cc(O)c(O)c(O)c3)c2)[C@@H](OC(=O)c2cc(O)c(O)c(OC(=O)c3cc(O)c(O)c(O)c3)c2)[C@@H]1OC(=O)c1cc(O)c(O)c(OC(=O)c2cc(O)c(O)c(O)c2)c1)c1cc(O)c(O)c(OC(=O)c2cc(O)c(O)c(O)c2)c1	9.02 µM	> 25 µM	4.68 µM	22.1 µM	0.985 µM	> 25 µM	1.91 µM	> 25 µM	1.9 µM	> 25 µM	5.48 µM	> 25	1.57 µM	6.98 µM	6.77 µM	> 25 µM	8.17 µM	> 25 µM	2.57 µM	> 25 µM
Cc1ncc(C(=O)Nc2ccc(CN3CCN(C)CC3)c(C(F)(F)F)c2)cc1C#Cc1cnc(N)cc1C#N	0.232 µM	1.03 µM	0.995 µM	3.25 µM	0.0518 µM	0.645 µM	1.3 µM	5.35 µM	1.63 µM	4.02 µM	0.802 µM	3.2	0.182 µM	2.92 µM	1.36 µM	3.58 µM	0.0538 µM	2.32 µM	2.37 µM	4.67 µM
Cc1cn(-c2cc(NC(=O)c3ccc(C)c(Nc4nccc(-c5cccnc5)n4)c3)cc(C(F)(F)F)c2)cn1	2.19 µM and 2.1 µM	> 10 µM and 10.4 µM	5.77 µM and 4.38 µM	> 10 µM and 11.5 µM	1.65 µM and 1.09 µM	> 10 µM and 9.18 µM	4.43 µM and 4.29 µM	> 10 µM and 24.8 µM	2.97 µM and 2.47 µM	> 10 µM and 7.32 µM	4.44 µM and 3.43 µM	> 40.9	4.26 µM and 2.06 µM	> 10 µM and 7.79 µM	5.38 µM and 3.57 µM	> 10 µM and 10 µM	1.58 µM and 1.23 µM	7.11 µM and 5.52 µM	> 10 µM and 13.1 µM	> 10 µM and 32.7 µM
